Like-named read-outs stand apart in the source and are kept apart here. Numbered stars: 1 amine (or outer) side, 2 acyl side, 3 side chain; on linkers, the order of the positions; unused ones are H or OH. Bridge positions count the residues as written; N and C are the ends. Square brackets hold non-standard residues; d marks the D form. Peptide text beside a SMILES is read from it. * marks the point of attachment. pTerphenylCO(4''-OnC5H11) = CCCCCOc1ccc(-c2ccc(-c3ccc(C(=O)*)cc3)cc2)cc1; Orn(4R-OH,5R-OH) = O=C([C@H](C[C@@H](O)[C@@H](O)N[*:3])N[*:1])[*:2]; hTyr(3S-OH,4S-OH) = N[C@H](C(=O)O)[C@H](O)[C@@H](O)c1ccc(O)cc1; Pro(3S-OH,4S-Me) = C[C@H]1CN[C@H](C(=O)O)[C@H]1O; Hyp = O=C(O)[C@@H]1C[C@@H](O)CN1
Key:
[1] = tested on: E. coli MG1655; assay: microbe, parasite or virus in culture; assay type: cell-based, Escherichia coli; settings: for FICI in combination with rifampin: 8 × 8 checkerboard, FICI ≤0.5 indicates synergy; for Synergistic activity with rifampin (in words): checkerboard assays, analogs of CAS
Description: (§1) Checkerboard assays were performed to evaluate the synergistic effect of CAS in combination with antibiotics as previously described ([Cai et al., 2023]). Briefly, antibiotics and CAS were diluted two times with MHB medium (with or without Mg^2+ or EDTA) in a 96-well plate, respectively, to form an 8 × 8 medium, and an equal volume (200 μL/well) of bacterial suspension with the drug was cultured. A microplate reader was used to measure the OD600 value after 18 h of culture at 37°C (the OD600 value over 0.1 indicates bacterial growth). The fractional inhibitory concentration index (FICI) was calculated using the following formula: FICI = MICab/MICa + MICba/MICb. MICa and MICb are the corresponding MIC values of compounds A and B alone, respectively; MICab is the MIC value of compound A combined with compound B; and MICba is the MIC value of compound B combined with compound A. Indicative of synergy is FICI ≤0.5.

[2] = tested on: E. coli MG1655; assay: High-throughput screening of FDA-approved drug library for antibiotic adjuvants (growth inhibition, OD600); assay type: cell-based, Escherichia coli; settings: library drug alone, LB medium, 96-well, 8 h static culture at 37°C, relative to PMBN (positive) and DMSO (negative) controls, %, table head prints no unit
[3] = tested on: E. coli MG1655; assay: as above; assay type: cell-based, Escherichia coli
[4] = tested on: K+ channel (KvQT1/minK); settings: vendor library annotation (Targetmol); ref Kang J, et al. J Pharmacol Exp Ther. 2001 Oct;299(1):290-6; read-out: IC50, K+ channel (KvQT1/minK) antagonist; cited from earlier work
Description: Supplement Table_1.XLSX, sheet "Sheet1" | column: Bioactivity

[5] = tested on: E. coli 69; assay: Checkerboard assay; assay type: cell-based, Escherichia coli; settings: MHB, 18 h at 37°C, OD600
Description: as §1

[6] = tested on: E. coli 72; assay: Checkerboard assay; assay type: cell-based, Escherichia coli; settings: multidrug-resistant strain, MHB, 18 h at 37°C, OD600
Description: as §1

[7] = tested on: E. coli ATCC25922; assay: Checkerboard assay; assay type: cell-based, Escherichia coli; settings: MHB, 18 h at 37°C, OD600
Description: as §1

[8] = tested on: Salmonella Typhimurium ATCC14028; assay: Checkerboard assay; assay type: cell-based; settings: MHB, 18 h at 37°C, OD600
Description: as §1

[9] = tested on: P. aeruginosa PAO1; assay: Checkerboard assay; assay type: cell-based, Pseudomonas aeruginosa; settings: MHB, 18 h at 37°C, OD600
Description: as §1

[10] = tested on: E. coli 72; assay: Time-kill curve; assay type: cell-based, Escherichia coli; settings: 1 × 10^6 CFU in MHB; CAS 32 μg/mL, rifampin 8 μg/mL, alone or combined; counted at 4, 8, 24 h
Description: (§2) At each time point (0, 4, 8, and 24 h), 100 μL of the bacterial solution was continuously diluted 10-fold in physiological saline. Subsequently, the suspension was then plated onto LB agar plates and cultured for an overnight period at 37°C for bacterial count.

[11] = tested on: E. coli MG1655; assay: Time-kill curve; assay type: cell-based, Escherichia coli; settings: 1 × 10^6 CFU in MHB; CAS 16 μg/mL, rifampin 1 μg/mL, alone or combined; counted at 4, 8, 24 h
Description: as §2

[12] = tested on: E. coli 72; assay: Galleria mellonella infection model; assay type: in vivo; settings: 2.25 × 10^5 CFU E. coli 72; CAS 64 mg/kg, rifampin 16 mg/kg, alone or in combination, injected via proleg; 10 larvae per group; survival over 48 h
[13] = library drug with 2 μg/mL rifampin, LB medium, 96-well, 8 h static culture at 37°C, OD600, relative to PMBN (positive) and DMSO (negative) controls, %, table head prints no unit

Molecule: CCCCCOc1ccc(-c2ccc(-c3ccc(C(=O)N[C@H]4C[C@@H](O)[C@@H](O)NC(=O)[C@@H]5[C@@H](O)[C@@H](C)CN5C(=O)[C@H]([C@@H](C)O)NC(=O)[C@H]([C@H](O)[C@@H](O)c5ccc(O)cc5)NC(=O)[C@@H]5C[C@@H](O)CN5C(=O)[C@H]([C@@H](C)O)NC4=O)cc3)cc2)cc1 [Anidulafungin] ({pTerphenylCO(4''-OnC5H11)}-[Orn(4R-OH,5R-OH)]T[Hyp][hTyr(3S-OH,4S-OH)]T[Pro(3S-OH,4S-Me)]; lactam 1-C; N-terminus assumed)
- FICI in combination with rifampin ([1]; MHB, 18 h at 37°C): > 1
- Synergistic activity with rifampin (in words) [1]: weak synergistic activity

Molecule: CC(=O)OC[C@H]1O[C@@H]([S-])[C@H](OC(C)=O)[C@@H](OC(C)=O)[C@@H]1OC(C)=O.CCP(CC)CC.[Au+] [Auranofin]
- Growth inhibition, Compound [2]: 64%
- Growth inhibition, Compound + rifampin [3]: 60%

Molecule: O=C(Cn1cnnn1)N[C@@H]1C(=O)N2C(C(=O)[O-])=C(CSc3nncs3)CS[C@H]12.[Na+] [Ceftezole sodium]
- Growth inhibition, Compound [2]: 109%
- Growth inhibition, Compound + rifampin [3]: 102%

Molecule: CO[C@@]1(NC(=O)CSC(F)F)C(=O)N2C(C(=O)[O-])=C(CSc3nnnn3CCO)CO[C@@H]21.[Na+] [Flomoxef sodium]
- Growth inhibition, Compound [2]: 108%
- Growth inhibition, Compound + rifampin [3]: 101%

Molecule: C=C1c2c(Cl)ccc(O)c2C(=O)C2=C(O)[C@]3(O)C(=O)C(C(N)=O)=C(O)[C@@H](N(C)C)[C@@H]3[C@@H](O)[C@H]12.O=C(O)c1cc(S(=O)(=O)O)ccc1O [Meclocycline sulfosalicylate salt]
- Growth inhibition, Compound [2]: 100%
- Growth inhibition, Compound + rifampin [3]: 100%

Molecule: OC(c1cc(C(F)(F)F)nc2c(C(F)(F)F)cccc12)C1CCCCN1 (centres unmarked) [Mefloquine]
- IC50 [4]: ~1000 nM

Molecule: COS(=O)(=O)[O-].C[n+]1c2ccccc2nc2ccccc21 [Phenazine methosulfate]
- Growth inhibition, Compound [2]: 80%
- Growth inhibition, Compound + rifampin [3, 13]: 76%

Molecule: CN1CCN(c2c(F)cc3c(=O)c(C(=O)O)cn4c3c2SCC4)CC1.Cl [Rufloxacin hydrochloride]
- Growth inhibition, Compound [2]: 113%
- Growth inhibition, Compound + rifampin [3]: 100%

Molecule: CO[C@H]1/C=C/O[C@@]2(C)Oc3c(C)c(O)c4c(O)c(c(/C=N/N5CCN(C)CC5)c(O)c4c3C2=O)NC(=O)/C(C)=C\C=C\[C@H](C)[C@H](O)[C@@H](C)[C@@H](O)[C@@H](C)[C@H](OC(C)=O)[C@@H]1C [rifampin]
- Growth inhibition, Compound [2]: 101%
- MIC ([1]; Escherichia coli, MG1655, rifampin alone, MHB, 18 h at 37°C, OD600): 8 µg/mL
- MIC of rifampin in combination with CAS ([1]; rifampin with CAS, MHB, 18 h at 37°C, OD600): 0.5 µg/mL
- MIC ([5]; Escherichia coli, 69, rifampin alone): 8 µg/mL
- MIC of rifampin in combination with CAS ([5]; rifampin with CAS): 0.5 µg/mL
- MIC ([6]; Escherichia coli, 72, rifampin alone): 64 µg/mL
- MIC of rifampin in combination with CAS ([6]; rifampin with CAS): 0.5 µg/mL
- MIC ([7]; Escherichia coli, ATCC25922, rifampin alone): 4 µg/mL
- MIC of rifampin in combination with CAS ([7]; rifampin with CAS): 0.25 µg/mL
- MIC ([8]; Salmonella enterica, rifampin alone): 16 µg/mL
- MIC of rifampin in combination with CAS ([8]; rifampin with CAS): 0.5 µg/mL
- MIC ([9]; Pseudomonas aeruginosa, PAO1, rifampin alone): 16 µg/mL
- MIC of rifampin in combination with CAS ([9]; rifampin with CAS): 0.5 µg/mL
- Time-kill, bacterial count [10]: no antimicrobial efficacy
- Time-kill, bacterial count [11]: no antimicrobial efficacy
- Death/mortality rate of G. mellonella larvae challenged with E. coli 72 [12]: could not reduce the death rate

Molecule: Cefetamet pivoxil hydrochloride
- Growth inhibition, Compound [2]: 98%
- Growth inhibition, Compound + rifampin [3]: 79%

Molecule: Colistimethate Sodium
- Growth inhibition, Compound [2]: 94%
- Growth inhibition, Compound + rifampin [3, 13]: 95%

Molecule: Colistin Methanesulfonate (sodium salt)
- Growth inhibition, Compound [2]: 87%
- Growth inhibition, Compound + rifampin [3, 13]: 102%

Molecule: Colistin sulfate (1066-17-7 free base)
- Growth inhibition, Compound [2]: 104%
- Growth inhibition, Compound + rifampin [3, 13]: 113%

Molecule: Echinocandin B nucleus hydrochloride [ECBN HCl]
- FICI in combination with rifampin ([1]; MHB, 18 h at 37°C): > 1
- Synergistic activity with rifampin (in words) [1]: weak synergistic activity

Molecule: Micafungin sodium
- FICI in combination with rifampin ([1]; MHB, 18 h at 37°C): > 1
- Synergistic activity with rifampin (in words) [1]: weak synergistic activity

Molecule: Pneumocandin B0
- FICI in combination with rifampin ([1]; MHB, 18 h at 37°C): > 1
- Synergistic activity with rifampin (in words) [1]: weak synergistic activity

Molecule: Streptozocin
- Growth inhibition, Compound [2]: 62%
- Growth inhibition, Compound + rifampin [3]: 69%
